The test system of assay [1] is Escherichia coliATCC25922. In words: microbe, parasite or virus in culture. As for the experimental part: (§1) Antimicrobial activities of cathelicidin-BF and cathelicidin-BF15 ([…]) were tested according to our previous methods [39]–[42]. […] The details were provided in the Materials and Methods S1.
(§2) Standard and clinically isolated microorganism strains were used for antimicrobial assays. Bacteria were first grown in LB (Luria-Bertani) broth to an OD600 nm of 0.8. A 10 µl aliquot of the bacteria was then taken and added to 8 ml of fresh LB broth with 0.7% agar and poured over a 90 mm Petri dish containing 25 ml of 1.5% agar in LB broth. After the top agar hardened, a 20 µl aliquot of the test sample filtered on a 0.22 µm Millipore filter was dropped onto the surface of the top agar and completely dried before being incubated overnight at 37 °C. If the sample examined had antimicrobial activity, a clear zone would be formed on the surface of the top agar representing inhibition of bacterial growth. Minimal inhibitory concentration (MIC) was determined in liquid LB medium by incubating the bacteria in LB broth with variable amounts of the sample tested. The MIC at which no visible growth occurred was recorded. In the assays of anti-fungi activity, for strains of Aspergillus terreus, A. niculans, and Chaetomium globosum, the fungal spore concentration was first counted under a microscope. The fungi with an initial concentration of 10^5 spores/ml were cultured with variable amounts of the sample tested in yeast extract-peptone-dextrose broth.

Another assay deals with Bacillus subtilis. The experiment in a line: microbe, parasite or virus in culture. As to the method:
as §1, §2

Assay [2] concerns Pseudomonas aeruginosa ATCC27853. The experiment in a line: microbe, parasite or virus in culture. Conditions: ATCC27853. As to the method:
as §1, §2

Assay [3] has as its system Staphylococcus aureus ATCC2592. In words: microbe, parasite or virus in culture. Conditions: ATCC2592. As for the experimental part:
as §1, §2

Assay [4] has as its system Candida albicans ATCC2002. In words: microbe, parasite or virus in culture. As to the method: as §1, §2
The subject of a further assay is E. coli 08A866(IS, DR). The note with it: clinically isolated strain, drug resistance for ampicillin and benzylpenicillin; liquid LB broth; mean of three independent experiments in duplicates; ND = no detectable activity. As to the method: as §1, §2
The subject of a further assay is E. coli 08A866. It is filed as cell-based, Escherichia coli. Conditions: for Amount of bacteria co-cultured with sample: Table 4, LB, 35 °C. As to the method: The details were provided in the Materials and Methods S1.
Fresh overnight colonies were added to a total of 20 ml LB, and incubated on a 35 °C water bath. After one hour of incubation, 1 ml broth from each flask was replaced with the test solution. The colony counting was performed at different time after addition of the test solutions as described by Mygind et al.

Assay [5] has as its system Acinetobacter calcoaceticus. The experiment in a line: microbe, parasite or virus in culture. Conditions: Acinetobacter calcoaceticus. As to the method:
as §1, §2

Another assay has as its system Bacillus cereus. In words: microbe, parasite or virus in culture. Conditions: Bacillus cereus. As to the method:
as §1, §2

The subject of the next assay is Bacillus pumilus. In words: microbe, parasite or virus in culture. Conditions: Bacillus pumilus. As for the experimental part: as §1, §2
Assay [6] concerns Aspergillus terreus GIM3.34. Conditions: saprophytic fungus; 10^5 spores/ml, yeast extract-peptone-dextrose broth; mean of three independent experiments in duplicates; ND = no detectable activity. As for the experimental part: as §1, §2
The subject of the next assay is Aspergillus niculans. Conditions: saprophytic fungus; 10^5 spores/ml, yeast extract-peptone-dextrose broth; mean of three independent experiments in duplicates; ND = no detectable activity. As for the experimental part: as §1, §2
Another assay concerns Chaetomium globosum. The note with it: saprophytic fungus; 10^5 spores/ml, yeast extract-peptone-dextrose broth; mean of three independent experiments in duplicates; ND = no detectable activity. As for the experimental part:
as §1, §2

In assay [7] the test system is K. pneumoniae standard strain. The experiment in a line: MIC determination, standard strain. Format: cell-based. The note with it: Klebsiella pneumoniae. As for the experimental part:
as §1
as §2, with “The fungi with an initial concentration of 10^5 spores/ml were cultured with variable amounts of the sample tested in yeast extract-peptone-dextrose broth.” left out

The structures appear in SMILES notation. Values after ≈ are worked out from the molar mass of the structure shown. Read-outs that look alike come from different tables or passages of the source. Where a SMILES comes first, the peptide text is derived from it. Bridges are numbered along the chain shown (N, C = ends).

`CC[C@H](C)[C@H](NC(=O)[C@H](C)NC(=O)[C@@H](NC(=O)[C@@H]1CCCN1C(=O)[C@H](CC(C)C)NC(=O)[C@@H](NC(=O)[C@H](CO)NC(=O)[C@@H](NC(=O)[C@H](C)NC(=O)[C@@H](NC(=O)[C@H](CCCCN)NC(=O)[C@H](CC(C)C)NC(=O)[C@@H](NC(=O)[C@@H]1CCCN1C(=O)CNC(=O)[C@@H](NC(=O)[C@@H](N)Cc1ccccc1)[C@@H](C)CC)C(C)C)[C@@H](C)CC)[C@@H](C)O)[C@@H](C)CC)[C@@H](C)O)C(=O)N[C@H]1CSSC[C@@H](C(=O)O)NC(=O)[C@H](CCCCN)NC(=O)[C@H](CCCCN)NC(=O)[C@H](Cc2ccccc2)NC(=O)[C@H]([C@@H](C)CC)NC(=O)[C@H](CCCCN)NC1=O` [HDW] (H-FIGPVLKIATSILPTAICKIFKKC-OH; disulfide 18-24 (inferred); N-terminus and C-terminus assumed): the MIC in assay [1] (ATCC25922) amounted to 18.7 µg/mL (≈ 7.18 µM); in the assay on Bacillus subtilis, 2.3 µg/mL (≈ 0.883 µM); in assay [2], 37.5 µg/mL (≈ 14.4 µM); in assay [3] it was 1.2 µg/mL (≈ 0.461 µM); in assay [4], 2.3 µg/mL (≈ 0.883 µM); against E. coli 08A866(IS, DR), 18.7 µg/mL (≈ 7.18 µM). In addition, the “Amount of bacteria co-cultured with sample” value in the assay on E. coli 08A866 (sample at 1 times MIC, time 0.1 min) was 49 CFU; in the assay with E. coli 08A866 (sample at 1 times MIC, time 1 min), 14.7 CFU; in the assay with E. coli 08A866 (sample at 1 times MIC, time 10 min), 0 CFU; in the assay on E. coli 08A866 (sample at 1 times MIC, time 30 min) it was 0 CFU; in the assay on E. coli 08A866 (sample at 10 times MIC, time 0.1 min) it was 38 CFU; in the assay on E. coli 08A866 (sample at 10 times MIC, time 1 min) it was 3.7 CFU. For the same molecule, the “Amount of bacteria co-cultured with sample” value with E. coli 08A866 (sample at 10 times MIC, time 10 min) was 0 CFU; in the assay with E. coli 08A866 (sample at 10 times MIC, time 30 min) it was 0 CFU. Besides, the “time to clean E. coli” value in the assay with E. coli 08A866 (killing kinetics during 30 min (Table 4), comparison of cathelicidin-BF and HDW) is “several minutes”.
Regarding `CC1(C)S[C@@H]2[C@H](NC(=O)[C@H](N)c3ccccc3)C(=O)N2[C@H]1C(=O)O` [ampicillin], the MIC in [5] was 75 µg/mL (≈ 215 µM); in assay [1] (Escherichia, COLIATCC25922), 18.7 µg/mL (≈ 53.5 µM); in the assay on Bacillus subtilis (Bacillus subtilis) it was 0.02 µg/mL (≈ 0.0572 µM); in [2] (Pseudomonas aeruginosa), 150 µg/mL (≈ 429 µM); in the assay on Bacillus cereus, 150 µg/mL (≈ 429 µM); in assay [3] (Staphylococcus aureus) it was 0.15 µg/mL (≈ 0.429 µM). Besides, the MIC against Bacillus pumilus was 0.15 µg/mL (≈ 0.429 µM); in assay [4] (Candida albicans), 0.3 µg/mL (≈ 0.859 µM); in assay [6], “no effect”; in the assay on Aspergillus niculans, “no effect”; in the assay with Chaetomium globosum, “no effect”; in assay [7], 150 µg/mL (≈ 429 µM).
In the case of `CC1(C)S[C@@H]2[C@H](NC(=O)Cc3ccccc3)C(=O)N2[C@H]1C(=O)O` [benzylpenicillin], the MIC is 37.5 µg/mL (≈ 112 µM) in assay [5]; 37.5 µg/mL (≈ 112 µM) in assay [1] (Escherichia, COLIATCC25922); 0.004 µg/mL (≈ 0.012 µM) in the assay with Bacillus subtilis (Bacillus subtilis); 18.7 µg/mL (≈ 55.9 µM) in [2] (Pseudomonas aeruginosa); 150 µg/mL (≈ 449 µM) in the assay on Bacillus cereus; 0.03 µg/mL (≈ 0.0897 µM) in [3] (Staphylococcus aureus). The MIC with Bacillus pumilus is 0.015 µg/mL (≈ 0.0449 µM); in assay [4] (Candida albicans), 0.03 µg/mL (≈ 0.0897 µM); in assay [6], “no effect”; with Aspergillus niculans it was “no effect”; with Chaetomium globosum, “no effect”; in [7], 18.7 µg/mL (≈ 55.9 µM).

The record behind these values is paper PMC2528936, “Snake Cathelicidin from Bungarus fasciatus Is a Potent Peptide Antibiotics” (PLoS ONE, 2008).
